In patent US20090029355A1, “Abnormalities of Phosphatase 2A (PP2A) for Diagnosis and Treatment of Alzheimer's Disease” (priority 2004, published 2009):
Entries after “also recorded” stand apart in the source; their conditions may differ.

Legend:
[1] = tested on: Erk1/2 phosphorylation in AC cells; assay: Erk1/2 phosphorylation on Western blots in AC fibroblasts; assay type: cell-based, human; details: about 10 nM OA, about 10 nM BK, about 10 min
Description: (§1) After serum-starving overnight, cells are treated as such: 1) BK treatment for about 10 min, 2) pretreatment with about 10 nM OA for about 15 min followed by BK treatment and another dose of OA for about 10 min. Reactions are terminated, cells are lysed in a lysis buffer, and the extent of Erk1/2 phosphorylation and levels of the total Erk1/2 are determined using Western blots. After normalizing with signals of the total Erk1/2, the ratio of BK-stimulated Erk1/2 phosphorylation in the presence and absence of OA is calculated. […]
(§2) Erk1/2 phosphorylation from different treatments was determined on Western blots using an anti-phospho-Erk1/2 antibody (Cell Signaling Technology), the total amount of Erk1/2 protein loaded on the SDS gel was determined by an anti-regular Erk1/2 antibody (Upstate Biotechnology), and was used to normalize the detected phospho-Erk1/2 signals.
(§3) (1) Quantitative PCR values for PP2A mRNA in each sample of 19 AC and 19 AD cell lines were normalized by those of GPDH in the same sample. […] The densitometric values for PP2A were normalized by those of annexin 11 and quantified with UN-SCAN-IT software (Silk Scientific, Inc.) (3) To assess Erk1/2 phosphorylation, ratios for phospho-Erk1/2 over those of the total Erk1/2 were calculated. […]

[2] = tested on: Erk1/2 phosphorylation in AD cells; assay: Erk1/2 phosphorylation on Western blots in AD fibroblasts; assay type: cell-based, human; details: about 10 nM OA, about 10 nM BK, about 10 min
Description: as §1, §2, §3

Question: What does the source list for C=C1[C@@H](O)[C@@H]2O[C@]3(CC[C@H](/C=C/[C@@H](C)[C@@H]4CC(C)=C[C@@]5(O[C@H](C[C@@](C)(O)C(=O)O)CC[C@H]5O)O4)O3)CC[C@H]2O[C@@H]1[C@@H](O)C[C@H](C)[C@H]1O[C@@]2(CCCCO2)CC[C@H]1C [OA, okadiac acid]?
Answer: Erk1/2 dephosphorylation after BK stimulation in the presence of OA [1]: inhibited Erk1/2 dephosphorylation; also recorded: significantly inhibited; BK-stimulated Erk1/2 phosphorylation on addition of OA [2]: did not further increase Erk1/2 phosphorylation
